Data: publication PMC10877733, “Discovery and Characterization of VU0542270, the First Selective Inhibitor of Vascular Kir6.1/SUR2B KATP Channels” (Molecular Pharmacology, 2024)
pIC50: −log10 of the molar value. “And” between values parts separate entries of the source, which are not always exact repeats. Identical values can stand only once.

How the values were obtained:
Type in all cases: cell-based
[1] = system: nine other members of the Kir channel family; experiment: Thallium assays, panel of nine other members of the Kir channel family; conditions: read-out: IC50 against panel of nine other Kir channel family members
Procedure: (§1) Quantitative thallium flux assays of Kir6.1/SUR2B activity were performed essentially as described previously for Kir6.2/SUR1 ([Raphemot et al., 2014]; [Kharade et al., 2019]). Stable T-Rex-HEK293-Kir6.1/SUR2B cells or transiently transfected HEK293T cells were plated in polyamine-coated, clear-bottomed, black-walled 384-well plates and were cultured (37°C/5% CO2) overnight in Dulbecco’s modified Eagle’s medium (Gibco, Carlsbad, CA, 11995-065) containing 10% FBS (2 mM Penicillin-Streptomycin). The following day, cells were washed with assay buffer (i.e., Hanks’ balanced salt solution/20 mM HEPES) and loaded for 1 hour with thallium sensor dye Brilliant Thallium (Ion Bioscience, San Marcos, TX) at room temperature. Dye-loaded cells were washed with assay buffer and transferred to a Panoptic Kinetic Imaging Plate Reader (Wavefront Bioscience, Franklin, TN). Control and test compound treatments were for 4 minutes prior to adding 0.5 mM chloride-free thallium stimulus buffer (Ion Bioscience) to initiate thallium flux. […] Selectivity assays against other Kir channels were performed essentially as described previously ([Kharade et al., 2018]; [McClenahan et al., 2022]).

[2] = molecular target: T1, Kir6.1/SUR2B (Homo sapiens, UniProt O60706); experiment: Whole-cell patch clamp electrophysiology, T-Rex-HEK293-Kir6.1/SUR2B cells
T1 construct: expressed in transfected cells; also transiently transfected HEK293T
T1 sequence (O60706 1-1549 isoform O60706-2, species assumed): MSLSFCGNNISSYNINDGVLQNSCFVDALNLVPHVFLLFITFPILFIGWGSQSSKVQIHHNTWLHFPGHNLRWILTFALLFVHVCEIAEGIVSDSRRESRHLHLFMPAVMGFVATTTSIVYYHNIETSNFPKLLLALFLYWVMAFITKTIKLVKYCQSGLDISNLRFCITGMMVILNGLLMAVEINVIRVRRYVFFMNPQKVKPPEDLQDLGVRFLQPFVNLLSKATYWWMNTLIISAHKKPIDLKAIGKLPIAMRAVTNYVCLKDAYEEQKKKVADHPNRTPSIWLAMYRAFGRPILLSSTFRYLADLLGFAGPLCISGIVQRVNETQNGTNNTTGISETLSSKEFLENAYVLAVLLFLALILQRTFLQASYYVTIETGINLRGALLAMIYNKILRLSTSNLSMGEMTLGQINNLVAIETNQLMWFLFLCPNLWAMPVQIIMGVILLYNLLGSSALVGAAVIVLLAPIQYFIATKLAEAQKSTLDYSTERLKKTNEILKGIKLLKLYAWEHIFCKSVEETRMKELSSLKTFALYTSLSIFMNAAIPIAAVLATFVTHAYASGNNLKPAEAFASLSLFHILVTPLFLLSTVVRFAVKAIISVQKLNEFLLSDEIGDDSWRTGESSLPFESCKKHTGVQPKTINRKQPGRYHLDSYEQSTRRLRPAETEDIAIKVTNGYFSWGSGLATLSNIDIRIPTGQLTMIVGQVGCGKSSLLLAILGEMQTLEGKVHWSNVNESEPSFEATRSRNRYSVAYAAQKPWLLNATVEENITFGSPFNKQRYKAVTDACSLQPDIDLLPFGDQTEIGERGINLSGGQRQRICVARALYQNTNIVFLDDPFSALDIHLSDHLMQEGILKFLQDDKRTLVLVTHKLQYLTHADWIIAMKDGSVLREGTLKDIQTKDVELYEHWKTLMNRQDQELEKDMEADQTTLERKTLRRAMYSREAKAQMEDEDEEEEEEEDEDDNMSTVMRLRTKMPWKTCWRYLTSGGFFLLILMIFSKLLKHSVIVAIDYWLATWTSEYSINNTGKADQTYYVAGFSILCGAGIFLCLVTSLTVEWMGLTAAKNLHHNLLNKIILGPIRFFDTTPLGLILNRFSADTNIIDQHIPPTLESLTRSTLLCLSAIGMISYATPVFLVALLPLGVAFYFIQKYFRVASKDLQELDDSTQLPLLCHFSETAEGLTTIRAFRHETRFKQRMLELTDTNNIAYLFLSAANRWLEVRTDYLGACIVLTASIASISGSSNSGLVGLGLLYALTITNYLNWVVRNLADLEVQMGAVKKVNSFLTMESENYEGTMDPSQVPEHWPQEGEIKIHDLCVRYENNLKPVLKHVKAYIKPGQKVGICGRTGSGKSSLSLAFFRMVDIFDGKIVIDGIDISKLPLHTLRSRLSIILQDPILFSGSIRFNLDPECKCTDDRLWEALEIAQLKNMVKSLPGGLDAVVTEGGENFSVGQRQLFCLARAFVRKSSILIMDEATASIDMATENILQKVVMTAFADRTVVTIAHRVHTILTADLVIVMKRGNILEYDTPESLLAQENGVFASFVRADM
T1 sequence (Q15842 whole entry partner, species assumed): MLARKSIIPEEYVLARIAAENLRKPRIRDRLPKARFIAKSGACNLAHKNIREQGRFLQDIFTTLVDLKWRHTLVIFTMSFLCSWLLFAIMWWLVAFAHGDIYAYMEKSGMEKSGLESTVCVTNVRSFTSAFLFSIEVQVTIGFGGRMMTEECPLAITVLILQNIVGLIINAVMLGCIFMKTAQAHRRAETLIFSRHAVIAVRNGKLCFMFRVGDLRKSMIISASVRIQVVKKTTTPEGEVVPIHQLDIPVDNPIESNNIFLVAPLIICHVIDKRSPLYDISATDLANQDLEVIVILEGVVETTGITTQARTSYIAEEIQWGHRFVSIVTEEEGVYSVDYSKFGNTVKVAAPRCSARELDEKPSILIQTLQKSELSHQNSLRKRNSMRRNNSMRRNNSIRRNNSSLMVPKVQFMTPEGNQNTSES
Procedure: T-Rex-HEK293-Kir6.1/SUR2B cells were plated into tissue culture-treated 35-mm polystyrene dishes at a density of 250,000 cells and cultured in a 5% CO2 incubator at 37°C. Whole-cell patch-clamp recordings were performed 48 hours after plating. Cells were dissociated on the experiment day and plated on poly-L-lysine–coated coverslips and allowed to recover for at least 1 hour in a 37°C/5% CO2 incubator before beginning experiments. Patch electrodes (2 to 3 MΩ) were filled with an intracellular solution containing 130 mM KCl, 2 mM MgCl2, 1 mM EGTA, 20 mM HEPES-free acid, and 2 mM Na2ATP (Roche Diagnostics, Risch-Rotkreuz, Switzerland), pH 7.3, titrated with KOH, and osmolarity 275 mOsmol/kg of water (adjusted with sucrose). The standard bath solution contained 135 mM NaCl, 5 mM KCl, 2 mM CaCl2, 1 mM MgCl2, 5 mM glucose, and 10 mM HEPES-free acid, pH 7.4, titrated with NaOH. Serial dilutions of compounds were first made in DMSO and then in bath solution so that the final DMSO concentration was 0.1% v/v across all test doses. Macroscopic currents were recorded under voltage-clamp conditions using an Axopatch 200B Amplifier (Molecular Devices, Sunnyvale, CA). Data were collected at 5 kHz and filtered at 1 kHz. […] IC50 values were determined by fitting the Hill equation to CRCs using variable-slope nonlinear regression analyses. […]

[3] = molecular target: T2, Kir4.2 (Homo sapiens, UniProt Q99712); experiment: Thallium flux selectivity assay Kir4.2
T2 construct: expressed in transfected cells
T2 sequence (Q99712 1-375): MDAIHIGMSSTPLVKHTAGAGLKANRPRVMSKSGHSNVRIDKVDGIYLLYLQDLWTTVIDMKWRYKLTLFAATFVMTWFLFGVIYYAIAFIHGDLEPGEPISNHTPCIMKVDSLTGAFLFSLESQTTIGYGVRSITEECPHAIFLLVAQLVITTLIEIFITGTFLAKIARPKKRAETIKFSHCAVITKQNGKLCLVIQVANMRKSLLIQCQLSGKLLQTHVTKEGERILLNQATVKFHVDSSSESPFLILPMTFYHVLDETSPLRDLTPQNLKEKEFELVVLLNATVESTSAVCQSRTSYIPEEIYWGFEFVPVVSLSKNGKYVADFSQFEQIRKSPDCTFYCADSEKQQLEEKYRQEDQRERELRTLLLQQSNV
Procedure: as §1

[4] = system: Kir6.1- or Kir6.2-containing channels in complex with either SUR2A or SUR2B; experiment: Thallium flux, Kir6.1 or Kir6.2 co-expressed with SUR2A or SUR2B in transfected HEK-293 cells; conditions: 3 µM, Fig. 4D
Source text: The pcDNA3.1-SUR2B plasmid was generously provided by Dr. Colin Nichols (Washington University). The pcDNA5/TO-Kir6.1 plasmid was synthesized by GenScript. Stably transfected tetracycline-regulated expression human embryonic kidney-293 (T-Rex-HEK293) cells expressing both plasmids were generated by cotransfecting cells with Lipofectamine LTX followed by antibiotic selection and clonal selection using the thallium flux assay described below. Monoclonal lines expressing robust pinacidil-activated thallium flux were selected for high KATP channel activity. T-Rex-HEK293 cells expressing Kir6.2/SUR1 were created as described previously ([Raphemot et al., 2014]). The cell culture media contained Dulbecco’s modified Eagle’s medium (Gibco, 11965-092) supplied with heat-inactivated FBS (bio-techne, Minneapolis, MN S11150H,10%), Blasticidine HCl (Gibco, A11139-03, 10 ug/mL), Penicillin-Streptomycin (Gibco, 15140-122, 2 mM), G418 Sulfate (CORNING, Corning, NY, 30-234-CR, 1 mg/mL), and Hygromycin B (Invitrogen, Carlsbad, CA, 10687-010, 250 ug/mL). […]
Quantitative thallium flux assays of Kir6.1/SUR2B activity were performed essentially as described previously for Kir6.2/SUR1 ([Raphemot et al., 2014]; [Kharade et al., 2019]). […] Dye-loaded cells were washed with assay buffer and transferred to a Panoptic Kinetic Imaging Plate Reader (Wavefront Bioscience, Franklin, TN). […]

Cc1nc(-c2cccs2)sc1CNC(=O)Nc1cccs1 [VU0542270]
pIC50 [1]: < 4.52
pIC50 ([2]; 1 µM pinacidil-activated, normalized to maximal inhibition by 10 µM VU0542270, read-out: Kir6.1/SUR2B IC50, whole-cell current): ~6.55 and 6.56
inhibition of KATP current ([2]; 10 µM compound in continued presence of 1 µM pinacidil): complete inhibition
pIC50 [3]: < 4.52
inhibition of Kir6.1- or Kir6.2-containing channels with SUR2A or SUR2B [4]: inhibits
